In the supplement of paper PMC9663587:

How the values were obtained:
[1] = tested on: HS578T; experiment: GRmax, 72 h; higher = less effect;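 also: breast cell lines in 384-well plates, nine doses across a 10^4 range, Dye Drop imaging of viable cells vs DMSO and time-zero plates, GR 0 means no net growth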
[2] = tested on: SUM149; experiment: GRmax, 72 h; higher = less effect;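 also: breast cell lines in 384-well plates, nine doses across a 10^4 range, Dye Drop imaging of viable cells vs DMSO and time-zero plates, GR 0 means no net growth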
[3] = tested on: MDAMB453; experiment: GRmax, 72 h; higher = less effect;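 also: breast cell lines in 384-well plates, nine doses across a 10^4 range, Dye Drop imaging of viable cells vs DMSO and time-zero plates, GR 0 means no net growth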
[4] = tested on: SUM229PE; experiment: GRmax, 72 h; higher = less effect;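 also: breast cell lines in 384-well plates, nine doses across a 10^4 range, Dye Drop imaging of viable cells vs DMSO and time-zero plates, GR 0 means no net growth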
[5] = tested on: MGH312; experiment: GRmax, 72 h; higher = less effect
[6] = tested on: HCC1569; experiment: GRmax, 72 h; higher = less effect
[7] = tested on: PDX1258; experiment: GRmax, 72 h; higher = less effect
[8] = tested on: SUM52PE; experiment: GRmax, 72 h; higher = less effect
[9] = tested on: EVSAT; experiment: area over the GR curve, 72 h; higher = more effect;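 also: Dye Drop or Deep Dye Drop imaging of viable cells in 384-well plates (Hoechst nuclei, LIVE/DEAD dye), nine half-log doses, GR normalized to DMSO controls and time-zero plates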
[10] = tested on: ZR751; experiment: area over the GR curve, 72 h; higher = more effect;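 also: Dye Drop or Deep Dye Drop imaging of viable cells in 384-well plates (Hoechst nuclei, LIVE/DEAD dye), nine half-log doses, GR normalized to DMSO controls and time-zero plates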
[11] = tested on: SUM159; experiment: area over the GR curve, 72 h; higher = more effect;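 also: Dye Drop or Deep Dye Drop imaging of viable cells in 384-well plates (Hoechst nuclei, LIVE/DEAD dye), nine half-log doses, GR normalized to DMSO controls and time-zero plates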
[12] = tested on: MDAMB361; experiment: area over the GR curve, 72 h; higher = more effect;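 also: Dye Drop or Deep Dye Drop imaging of viable cells in 384-well plates (Hoechst nuclei, LIVE/DEAD dye), nine half-log doses, GR normalized to DMSO controls and time-zero plates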
[13] = tested on: HCC1937; experiment: area over the GR curve, 72 h; higher = more effect

C[C@@H]1COCCN1c1cc(C2([S@](C)(=N)=O)CC2)nc(-c2cc[nH]c3nccc2-3)n1 [AZD6738] (max 10 µM)
GRmax, 72 h [1]: 0.0076 GR | GRmax, 72 h [2]: -0.297 GR | GRmax, 72 h [3]: -0.162 GR | GRmax, 72 h [4]: -0.0688 GR | GRmax, 72 h [5]: 0.348 GR | GRmax, 72 h [6]: -0.0623 GR | GRmax, 72 h [7]: -0.295 GR | GRmax, 72 h [8]: -0.174 GR | area over the GR curve [9]: -0.0225 GR | area over the GR curve [10]: 0.03 GR | area over the GR curve [11]: 0.0107 GR | area over the GR curve [12]: 0.161 GR | area over the GR curve [13]: -0.0947 GR

NC(=O)Nc1cc(-c2cccc(F)c2)sc1C(=O)N[C@H]1CCCNC1 [AZD7762] (max 10 µM)
GRmax, 72 h [1]: -0.598 GR | GRmax, 72 h [2]: -0.477 GR | GRmax, 72 h [3]: -0.216 GR | GRmax, 72 h [4]: -0.357 GR | GRmax, 72 h [5]: -0.515 GR | GRmax, 72 h [6]: -0.411 GR | GRmax, 72 h [7]: -0.453 GR | GRmax, 72 h [8]: -0.322 GR | area over the GR curve [9]: 0.253 GR | area over the GR curve [10]: 0.201 GR | area over the GR curve [11]: 0.277 GR | area over the GR curve [12]: 1.05 GR | area over the GR curve [13]: 0.447 GR

Cc1nc(NC(=O)N2CCC[C@H]2C(N)=O)sc1-c1ccnc(C(C)(C)C(F)(F)F)c1 [Alpelisib/BYL719] (max 10 µM)
GRmax, 72 h [1]: 0.531 GR | GRmax, 72 h [2]: 0.848 GR | GRmax, 72 h [3]: -0.307 GR | GRmax, 72 h [4]: 0.523 GR | GRmax, 72 h [5]: 0.104 GR | GRmax, 72 h [6]: 0.369 GR | GRmax, 72 h [7]: 0.631 GR | GRmax, 72 h [8]: 0.0427 GR | area over the GR curve [9]: 0.0161 GR | area over the GR curve [10]: 0.0495 GR | area over the GR curve [11]: 0.056 GR | area over the GR curve [12]: 0.531 GR | area over the GR curve [13]: 0.0501 GR

CN(C)C/C=C/C(=O)Nc1ccc(O[C@@H]2CCC[C@@H](Nc3ncc(Cl)c(-c4c[nH]c5ccccc45)n3)C2)cc1 [BSJ-01-175] (max 10 µM)
GRmax, 72 h [1]: -0.694 GR | GRmax, 72 h [2]: -0.617 GR | GRmax, 72 h [3]: -0.723 GR | GRmax, 72 h [4]: -0.77 GR | GRmax, 72 h [5]: -0.985 GR | GRmax, 72 h [6]: -0.762 GR | GRmax, 72 h [7]: -0.914 GR | GRmax, 72 h [8]: -0.673 GR | area over the GR curve [9]: 0.637 GR | area over the GR curve [10]: 0.189 GR | area over the GR curve [11]: 0.646 GR | area over the GR curve [12]: 1.32 GR | area over the GR curve [13]: 0.462 GR

CC(=O)c1c(C)c2cnc(Nc3ccc(N4CCN(CCOCCOCCOCCNC(=O)COc5cccc6c5C(=O)N(C5CCC(=O)NC5=O)C6=O)CC4)cn3)nc2n(C2CCCC2)c1=O (stereo not given) [BSJ-03-123] (max 10 µM)
GRmax, 72 h [1]: -0.263 GR | GRmax, 72 h [2]: -0.0089 GR | GRmax, 72 h [3]: -0.022 GR | GRmax, 72 h [4]: 0.132 GR | GRmax, 72 h [5]: -0.894 GR | GRmax, 72 h [6]: -0.03 GR | GRmax, 72 h [7]: -0.415 GR | GRmax, 72 h [8]: 0.227 GR | area over the GR curve [9]: 0.194 GR | area over the GR curve [10]: 0.267 GR | area over the GR curve [11]: 0.265 GR | area over the GR curve [12]: 0.439 GR | area over the GR curve [13]: 0.0357 GR

CC(C)Nc1cc(-c2c[nH]c(C(=O)N[C@H](CO)c3cccc(Cl)c3)c2)c(Cl)cn1 [BVD523] (max 10 µM)
GRmax, 72 h [1]: 0.259 GR | GRmax, 72 h [2]: 0.204 GR | GRmax, 72 h [3]: 0.387 GR | GRmax, 72 h [4]: 0.265 GR | GRmax, 72 h [5]: 0.914 GR | GRmax, 72 h [6]: 0.568 GR | GRmax, 72 h [7]: 0.163 GR | GRmax, 72 h [8]: 0.315 GR | area over the GR curve [9]: 0.0496 GR | area over the GR curve [10]: 0.122 GR | area over the GR curve [11]: 0.254 GR | area over the GR curve [12]: 0.193 GR | area over the GR curve [13]: 0.119 GR

Cc1c(N)nc([C@H](CC(N)=O)NC[C@H](N)C(N)=O)nc1C(=O)N[C@H](C(=O)N[C@H](C)[C@@H](O)[C@H](C)C(=O)N[C@H](C(=O)NCCc1nc(-c2nc(C(=O)NCCC[S+](C)C)cs2)cs1)[C@@H](C)O)[C@@H](OC1OC(CO)C(O)C(O)C1OC1OC(CO)C(O)C(OC(N)=O)C1O)c1cnc[nH]1 (stereo not given in full) [Bleomycin] (max 10 µM)
GRmax, 72 h ([1]; main component drawn): -0.197 GR | GRmax, 72 h ([2]; main component drawn): -0.315 GR | GRmax, 72 h ([3]; main component drawn): 0.0154 GR | GRmax, 72 h ([7]; main component drawn): 0.0721 GR | area over the GR curve ([11]; main component drawn): 0.463 GR | area over the GR curve ([12]; main component drawn): 0.361 GR | area over the GR curve ([13]; main component drawn): 0.416 GR

Nc1cc(C(F)(F)F)c(-c2cc(N3CCOCC3)nc(N3CCOCC3)n2)cn1 [Buparlisib/NVP-BKM120] (max 10 µM)
GRmax, 72 h [1]: -0.343 GR | GRmax, 72 h [2]: -0.331 GR | GRmax, 72 h [3]: -0.607 GR | GRmax, 72 h [4]: -0.285 GR | GRmax, 72 h [5]: -0.859 GR | GRmax, 72 h [6]: -0.163 GR | GRmax, 72 h [7]: -0.392 GR | GRmax, 72 h [8]: -0.183 GR | area over the GR curve [9]: 0.322 GR | area over the GR curve [10]: 0.256 GR | area over the GR curve [11]: 0.184 GR | area over the GR curve [12]: 0.611 GR | area over the GR curve [13]: 0.263 GR

COc1cc2nccc(Oc3ccc(NC(=O)C4(C(=O)Nc5ccc(F)cc5)CC4)cc3)c2cc1OC [Cabozantinib] (max 10 µM)
GRmax, 72 h [1]: 0.215 GR | GRmax, 72 h [2]: 0.3 GR | GRmax, 72 h [3]: 0.465 GR | GRmax, 72 h [4]: 0.199 GR | GRmax, 72 h [5]: 0.332 GR | GRmax, 72 h [6]: 0.723 GR | GRmax, 72 h [7]: 0.28 GR | GRmax, 72 h [8]: 0.0751 GR | area over the GR curve [9]: 0.0366 GR | area over the GR curve [10]: -0.0852 GR | area over the GR curve [11]: 0.059 GR | area over the GR curve [12]: 0.0628 GR | area over the GR curve [13]: 0.0053 GR

COc1cc2c(Oc3ccc4[nH]c(C)cc4c3F)ncnc2cc1OCCCN1CCCC1 [Cediranib/AZD2171] (max 10 µM)
GRmax, 72 h [1]: -0.572 GR | GRmax, 72 h [2]: 0.0682 GR | GRmax, 72 h [3]: -0.689 GR | GRmax, 72 h [4]: 0.18 GR | GRmax, 72 h [5]: -0.0842 GR | GRmax, 72 h [6]: 0.875 GR | GRmax, 72 h [7]: -0.561 GR | GRmax, 72 h [8]: 0.21 GR | area over the GR curve [9]: 0.064 GR | area over the GR curve [10]: 0.019 GR | area over the GR curve [11]: 0.0309 GR | area over the GR curve [12]: 0.288 GR | area over the GR curve [13]: 0.044 GR

Cc1cc(Nc2ncc(Cl)c(Nc3ccccc3S(=O)(=O)C(C)C)n2)c(OC(C)C)cc1C1CCNCC1 [Ceritinib/LDK378] (max 10 µM)
GRmax, 72 h [1]: -0.436 GR | GRmax, 72 h [2]: -0.438 GR | GRmax, 72 h [3]: -0.687 GR | GRmax, 72 h [4]: 0.336 GR | GRmax, 72 h [5]: -0.156 GR | GRmax, 72 h [6]: -0.83 GR | GRmax, 72 h [7]: -0.684 GR | GRmax, 72 h [8]: 0.559 GR | area over the GR curve [9]: 0.0642 GR | area over the GR curve [10]: 0.16 GR | area over the GR curve [11]: 0.213 GR | area over the GR curve [12]: 0.546 GR | area over the GR curve [13]: 0.133 GR

N.N.[Cl][Pt][Cl] [Cisplatin] (max 10 µM)
GRmax, 72 h [1]: 0.0125 GR | GRmax, 72 h [2]: -0.229 GR | GRmax, 72 h [3]: 0.133 GR | GRmax, 72 h [7]: 0.318 GR | area over the GR curve [11]: 0.137 GR | area over the GR curve [12]: 0.177 GR | area over the GR curve [13]: 0.327 GR

Cc1nc(Nc2ncc(C(=O)Nc3c(C)cccc3Cl)s2)cc(N2CCN(CCO)CC2)n1 [Dasatinib] (max 10 µM)
GRmax, 72 h [1]: -0.244 GR | GRmax, 72 h [2]: -0.172 GR | GRmax, 72 h [3]: 0.549 GR | GRmax, 72 h [4]: -0.112 GR | GRmax, 72 h [5]: 0.0774 GR | GRmax, 72 h [6]: -0.059 GR | GRmax, 72 h [7]: -0.134 GR | GRmax, 72 h [8]: -0.322 GR | area over the GR curve [9]: 0.379 GR | area over the GR curve [10]: 0.687 GR | area over the GR curve [11]: 0.0885 GR | area over the GR curve [12]: 0.351 GR | area over the GR curve [13]: 0.442 GR

COc1cccc2c1C(=O)c1c(O)c3c(c(O)c1C2=O)C[C@@](O)(C(=O)CO)C[C@@H]3O[C@H]1C[C@H](N)[C@H](O)[C@H](C)O1 [Doxorubicin] (max 3.162 µM)
GRmax, 72 h [1]: -0.347 GR | GRmax, 72 h [2]: -0.321 GR | GRmax, 72 h [3]: -0.348 GR | GRmax, 72 h [4]: -0.125 GR | GRmax, 72 h [5]: -0.963 GR | GRmax, 72 h [6]: -0.132 GR | GRmax, 72 h [7]: -0.493 GR | GRmax, 72 h [8]: -0.0432 GR | area over the GR curve [9]: 0.642 GR | area over the GR curve [10]: 0.497 GR | area over the GR curve [11]: 0.624 GR | area over the GR curve [12]: 0.912 GR | area over the GR curve [13]: 0.579 GR

CO[C@H]1C[C@@H]2CC[C@@H](C)[C@@](O)(O2)C(=O)C(=O)N2CCCC[C@H]2C(=O)O[C@H]([C@H](C)C[C@@H]2CC[C@@H](OCCO)[C@H](OC)C2)CC(=O)[C@H](C)/C=C(\C)[C@@H](O)[C@@H](OC)C(=O)[C@H](C)C[C@H](C)/C=C/C=C/C=C/1C [Everolimus] (max 10 µM)
GRmax, 72 h [1]: 0.42 GR | GRmax, 72 h [2]: 0.737 GR | GRmax, 72 h [3]: 0.0309 GR | GRmax, 72 h [4]: 0.686 GR | GRmax, 72 h [5]: 0.148 GR | GRmax, 72 h [6]: 0.555 GR | GRmax, 72 h [7]: 0.631 GR | GRmax, 72 h [8]: 0.553 GR | area over the GR curve [9]: 0.551 GR | area over the GR curve [10]: 0.669 GR | area over the GR curve [11]: 0.108 GR | area over the GR curve [12]: 0.85 GR | area over the GR curve [13]: 0.335 GR

CC[C@@]1(O)C(=O)OCc2c1cc1n(c2=O)Cc2cc3c(CN(C)C)c(O)ccc3nc2-1 [Topotecan] (max 10 µM)
GRmax, 72 h [1]: -0.449 GR | GRmax, 72 h [2]: -0.46 GR | GRmax, 72 h [3]: -0.529 GR | GRmax, 72 h [7]: -0.457 GR | area over the GR curve [11]: 0.864 GR | area over the GR curve [12]: 1.13 GR | area over the GR curve [13]: 0.837 GR
